{"source": "patent US20220016142A1", "about": "“COMBINATION THERAPY FOR TREATMENT OF CANCER” (PLUS VITECH, S.L., priority 2018, published 2022)", "tested_on": "B16F10 cells (melanoma)", "test": "B16F10 melanoma tumor growth in mice (Example 2b)", "format": "in vivo, C57BL/6J mice", "conditions": "maropitant 30 mg/kg i.p. once a day, anti CTLA-4 5 mg/kg i.p. every other day, FIG. 5", "description": "One Lewis Pulmonar Carcinoma cell line: 3LL; and one melanoma cell line: B16F10 (ATCC cell bank; LGC Standards); were used in this study. Both cell lines were maintained in culture in Dulbecco's modified Eagle's medium (DMEM) (Gibco, Thermo Fisher Scientific) supplemented with 10% foetal bovine serum (FBS) (Gibco, Thermo Fisher Scientific), 2 mM L-glutamine (Sigma-Aldrich, Merk) and Peni-Strep (50 U/ml and […]; Gibco, Thermo Fisher Scientific) in a humidified incubator at 37° C. and 5% CO2.\nCerenia® (maropitant citrate injectable solution; Zoetis US) was injected intraperitoneally at a dose of 30 mg/kg, once a day. […]\n3LL cells (0.6×10^6 per mouse) or B16F10 cells (1×10^6 per mouse) were subcutaneously injected into the right flank of C57BL/6J mice (Charles River) with matrigel (Matrigel Membrane Matrix, Corning) at 50% v/v. Tumor growth was evaluated every 2/3 days. Animal vital parameters were monitored daily. […]\nIn order to evaluate the effect of Maropitant and anti CTLA-4 combination in vivo, B16F10 tumor-bearing mice were randomly assigned into four treatment groups as detailed in table 1 (n=6 mice per group) to receive either Maropitant 30 mg/kg, anti CTLA-4 5 mg/kg, the combination of both agents or the equivalent volume of vehicle. Tumor growth was recorded as detailed in Materials and Methods. […]", "data": [{"smiles": "COc1ccc(C(C)(C)C)cc1CN[C@H]1C2CCN(CC2)[C@H]1C(c1ccccc1)c1ccccc1.O=C(O)CC(O)(CC(=O)O)C(=O)O", "note": "[Maropitant, maropitant citrate]", "values": [{"measurement": "reduction in tumor growth compared to vehicle group", "setting": "after 9 days of treatment", "result": 28, "unit": "%"}, {"measurement": "effect on growth of melanoma tumours (in words)", "setting": "9 days", "result": "inhibited the grown of melanoma tumours"}]}]}
